# Data from ChEMBL document CHEMBL5325494, “Glycogen synthase kinase-3: A potential target for diabetes” (Bioorg Med Chem, 2023).
# How the values were obtained:
# [1] = molecular target: T1, Glycogen synthase kinase-3 beta (Homo sapiens, UniProt P49841); assay: Inhibition of GSK-3beta (unknown origin)
# PC-12 = assay: Neuroprotective activity against CORT-induced damage in rat PC-12 cells measured after 24 hrs by MTT assay; format: functional, cell-based; settings: PC-12, 24 h
# [2] = molecular target: T1, Glycogen synthase kinase-3 beta; assay: Binding affinity to full length GST-tagged human recombinant GSK-3beta (1 to 420 residues) expressed in Escherichia coli assessed as inhibition constant
# [3] = molecular target: T1, Glycogen synthase kinase-3 beta; assay: Inhibition of human wildtype full length GSK-3beta
# [4] = molecular target: T1, Glycogen synthase kinase-3 beta; assay: Inhibition of full length GST-tagged human recombinant GSK-3beta (1 to 420 residues) expressed in Escherichia coli
# [5] = molecular target: T1, Glycogen synthase kinase-3 beta; assay: Inhibition of GSK-3beta (unknown origin) incubated for 1 hr by HTRF assay
# [6] = molecular target: T1, Glycogen synthase kinase-3 beta; assay: Inhibition of human GSK-3beta
# T1 sequence (P49841 whole entry): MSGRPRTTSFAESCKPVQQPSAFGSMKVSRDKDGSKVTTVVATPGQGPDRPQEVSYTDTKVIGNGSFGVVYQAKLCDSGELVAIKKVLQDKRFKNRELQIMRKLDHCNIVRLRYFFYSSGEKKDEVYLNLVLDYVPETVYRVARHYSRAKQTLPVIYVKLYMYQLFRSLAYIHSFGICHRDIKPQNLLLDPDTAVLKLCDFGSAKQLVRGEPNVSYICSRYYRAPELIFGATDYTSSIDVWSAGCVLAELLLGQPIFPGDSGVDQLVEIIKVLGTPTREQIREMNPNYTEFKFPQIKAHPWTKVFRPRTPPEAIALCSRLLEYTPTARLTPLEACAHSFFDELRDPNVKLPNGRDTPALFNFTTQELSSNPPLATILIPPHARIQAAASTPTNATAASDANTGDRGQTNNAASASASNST
structure (smiles),measurement,setting,value
Nc1nc(NCCNc2ncc(-c3ncc[nH]3)c(-c3ccc(Cl)cc3Cl)n2)ccc1[N+](=O)[O-],IC50,[1],0.06 nM
CN1CCN(c2ccc(NCCNc3ccc([N+](=O)[O-])c(N)n3)nc2-c2ccc(Cl)cc2Cl)C(=O)C1,IC50,[1],8 nM
N#C[C@@H](CC1=NN2C(N)=NC(NC3CCCCC3)=NC2N1)C(N)=O (some centres undefined),EC50,PC-12,3 nM
COCCNC(=O)c1nc(-c2ccc(S(=O)(=O)N3C=CN(C)CC3)cc2)cnc1N,Ki,[2],90 nM
COc1ccccc1-c1c2c(nc3[nH]nc(C)c13)CC(C)(C)CC2=O,IC50,[3],54 nM
Nc1ncc(-c2ccc(S(=O)(=O)N3C=COCC3)cc2)nc1C(=O)Nc1cccnc1,IC50,[4],10 nM
O=C(O)C1=CN2C3C(=C(NCCNc4ccccn4)C(F)=CC3C1=O)OCCC21CCC1 (centres undefined),IC50,[1],36 nM
COCCN1CCC(CNC(=O)c2ncc3ccc(-c4cncc(OC(C)C)c4)cn23)CC1,IC50,[5],9 nM
CC(/C=C1\SC(=S)N(CC(=O)O)C1=O)=C\c1ccccc1,IC50,[6],21 nM
